Data taken from US7060822B1, “2-pyrazolin-5-ones” (Abbott GmbH & Co. KG, priority 1999, dated 2006).

Structure (SMILES) | melting point [°C]
CCOC1=NNC(=O)C1=Cc1cc(Cl)c[nH]1 [Example 111, 4-[(4-Chloropyrrol-2-yl)methylene]-3-ethoxy-2-pyrazolin-5-one] | 237 to 239
Cc1[nH]c(C=C2C(=O)NN=C2C2CC2)c(C)c1CN(C)C.O=C(O)/C=C\C(=O)O [Example 174, 3-Cyclopropyl-4-[(3,5-dimethyl-4-dimethylaminomethylpyrrol-2-yl)methylene]-2-pyrazolin-5-one maleate] | 199 to 201
Cc1[nH]c(C=C2C(=O)NN=C2C2CC2)c(C)c1CN1CCOCC1 [Example 97, 3-Cyclopropyl-4-[(3,5-dimethyl-4-morpholinomethylpyrrol-2-yl)methylene]-2-pyrazolin-5-one] | 175 to 177
CCOC1=NNC(=O)C1=Cc1ccc([N+](=O)[O-])[nH]1 [Example 152, 3-Ethoxy-4-[(5-nitropyrrol-2-yl)methylene]-2-pyrazolin-5-one] | 208 to 210
Cc1c[nH]c(C=C2C(=O)NN=C2C2CC2)c1 [Example 68, 3-Cyclopropyl-4-[(4-methylpyrrol-2-yl)methylene]-2-pyrazolin-5-one] | 212 to 215
CCc1c(C)[nH]c(C=C2C(=O)NN=C2c2cnccn2)c1C [Example 135, 4-[(3,5-Dimethyl-4-ethylpyrrol-2-yl)methylene]-3-pyrazinyl-2-pyrazolin-5-one] | 264 to 267
CCOC(=O)c1c(C)[nH]c(C=C2C(=O)NN=C2c2ccno2)c1C [Example 161, 4-[(3,5-Dimethyl-4-ethoxycarbonylpyrrol-2-yl)methylene]-3-(5-isoxazolyl)-2-pyrazolin-5-one] | 255 to 257
O=C1NN=C(c2cnccn2)C1=Cc1cc2c([nH]1)CCC=C2Cl [Example 330, 4-[(4-Chloro-6,7-dihydroindol-2-yl)methylene]-3-pyrazinyl-2-pyrazolin-5-one] | 206 to 209
CN(C)c1ccc(C=C2C(=O)NN=C2C2CC2)cc1 [Example 361, 3-Cyclopropyl-4-[(4-dimethylaminophenyl)methylene]-2-pyrazolin-5-one] | 280 to 289
COc1ccc2[nH]c(C=C3C(=O)NN=C3C3CC3)cc2c1 [Example 317, 3-Cyclopropyl-4-[(5-methoxyindol-2-yl)methylene]-2-pyrazolin-5-one] | 221 to 224
O=C1NN=C(C2CC2)C1=Cc1cccs1 [Example 367, 3-Cyclopropyl-4-[(thien-2-yl)methylene]-2-pyrazolin-5-one] | 275 to 277
CC(C)OC1=NNC(=O)C1=Cc1cc[nH]c1 [Example 369, 3-Isopropoxy-4-[(pyrrol-3-yl)methylene]-2-pyrazolin-5-one] | 252 to 255
Cc1cc(C=C2C(=O)NN=C2C2CC2)[nH]c1C [Example 1, 3-Cyclopropyl-4-[(4,5-dimethylpyrrol-2-yl)methylene]-2-pyrazolin-5-one] | 220 to 222
CCOC1=NNC(=O)C1=Cc1ccc(C)[nH]1 [Example 46, 3-Ethoxy-4-[(5-methylpyrrol-2-yl)methylene]2-pyrazolin-5-one] | 197 to 199
O=C1NN=C(C2CCOC2)C1=Cc1cc2ccccc2[nH]1 (stereo not shown) [Example 316, 4-[(Indol-2-yl)methylene]-3-(tetrahydrofuran-3-yl)-2-pyrazolin-5-one] | 180 to 183
Cc1ccc(C=C2C(=O)NN=C2c2cccnc2)[nH]1 | 210 to 212
COC(=O)C(Cc1c(C=C2C(=O)NN=C2OC(C)C)[nH]c2ccccc12)NC(C)=O (stereo not shown) [Example 323, 3-Isopropoxy-4-{[3-(2-methoxycarbonyl-2-acetamidoethyl)indol-2-yl]methylene}-2-pyrazolin-5-one] | 205 to 206
Cc1[nH]c(C=C2C(=O)NN=C2c2cnccn2)c(C)c1CCCCO [Example 192, 4-{[3,5-Dimethyl-4-(4-hydroxybutyl)pyrrol-2-yl]methylene}-3-pyrazinyl-2-pyrazolin-5-one] | 222
CCOC(=O)C1=NNC(=O)C1=Cc1ccc[nH]1 [Example 104, 3-Ethoxycarbonyl-4-[(pyrrol-2-yl)methylene]-2-pyrazolin-5-one] | 177 to 179
COc1ccc2[nH]c(C=C3C(=O)NN=C3c3cnccn3)cc2c1 [Example 327, 4-[(5-Methoxyindol-2-yl)methylene]-3-pyrazinyl-2-pyrazolin-5-one] | 272 to 274
CC1(C)C(C2=NNC(=O)C2=Cc2ccc[nH]2)C1(C)C [Example 60, 4-[(Pyrrol-2-yl)methylene]-3-(2,2,3,3-tetramethylcyclopropyl)-2-pyrazolin-5-one] | 160 to 162

More lines, now with the values ahead:

melting point [°C] | Structure (SMILES)
170 to 172 | COc1ccc2[nH]c(C=C3C(=O)NN=C3c3ccccn3)cc2c1 [Example 328, 4-[(5-Methoxyindol-2-yl)methylene]-3-(2-pyridyl)-2-pyrazolin-5-one]
226 to 228 | Cc1c[nH]c(C=C2C(=O)NN=C2Cc2ccccc2)c1CCC(=O)O [Example 8, 3-Benzyl-4-{[3-(2-carboxyethyl)-4-methylpyrrol-2-yl]methylene}-2-pyrazolin-5-one]
245 to 247 | Cn1cc(C=C2C(=O)NN=C2C2CC2)c2ccccc21 [Example 273, 3-Cyclopropyl-4-[(1-methylindol-3-yl)methylene]-2-pyrazolin-5-one]
253 to 255 | CC(CC1=NNC(=O)C1=Cc1c[nH]c2ccccc12)c1ccccc1 (stereo not shown) [Example 233, 4-[(Indol-3-yl)methylene]-3-(2-phenylpropyl)-2-pyrazolin-5-one]
254 to 255 | Cc1ccc(CC2=NNC(=O)C2=Cc2ccc[nH]2)cc1 [Example 14, 3-(4-Methylbenzyl)-4-[(pyrrol-2-yl)methylene]-2-pyrazolin-5-one]
300 to 304 | O=C1NN=C(C2CCCC2)C1=Cc1c[nH]c2ccccc12 [Example 263, 3-Cyclopentyl-4-[(indol-3-yl)methylene]-2-pyrazolin-5-one]
305 to 307 | O=C1NN=C(c2cccnc2)C1=Cc1c[nH]c2ccccc12
245 to 246 | O=C1NN=C(C2CC2)C1=Cc1c[nH]c2ncccc12 [Example 344, 4-[(7-Azaindol-3-yl)methylene]-3-cyclopropyl-2-pyrazolin-5-one]
264 to 267 | O=C1NN=C(COc2ccc(Cl)cc2)C1=Cc1c[nH]c2ccccc12 [Example 214, 3-(4-Chlorophenyloxymethyl)-4-[(indol-3-yl)methylene]-2-pyrazolin-5-one]
224 to 225 | CN(C)c1ccc(C=C2C(=O)NN=C2CCc2ccccc2)cc1 [Example 360, 4-[(4-Dimethylaminophenyl)methylene]-3-phenylethyl-2-pyrazolin-5-one]
278 to 280 | O=C1NN=C(c2ccccn2)C1=Cc1c[nH]c2ccccc12 [Example 269, 4-[(Indol-3-yl)methylene]-3-(2-pyridyl)-2-pyrazolin-5-one]
201 to 203 | Cn1cc(C=C2C(=O)NN=C2C(C)(C)C)c2ccccc21 [Example 303, 4-[(1-Methylindol-3-yl)methylene]-3-tert-butyl-2-pyrazolin-5-one]
277 to 279 | O=C1NN=C(C2CCCC2)C1=Cc1c[nH]c2ccccc12 [Example 247, 3-Cyclopentyl-4-[(indol-3-yl)methylene]-2-pyrazolin-5-one]
288 to 290 | COc1cccc(CC2=NNC(=O)C2=Cc2c[nH]c3ccccc23)c1 [Example 226, 4-[(Indol-3-yl)methylene]-3-(3-methoxybenzyl)-2-pyrazolin-5-one]
168 to 170 | CCOC(=O)c1c(C)[nH]c(C=C2C(=O)NN=C2C(C)Cc2ccccc2)c1C (stereo not shown) [Example 150, 4-[(3,5-Dimethyl-4-ethoxycarbonylpyrrol-2-yl)methylene]-3-(1-methyl-2-phenylethyl)-2-pyrazolin-5-one]
246 to 247 | CCCOC1=NNC(=O)C1=Cc1c[nH]c2ccccc12 [Example 241, 4-[(Indol-3-yl)methylene]-3-propoxy-2-pyrazolin-5-one]
192 to 193 | Cn1cc(C=C2C(=O)NN=C2CCc2ccc(N)cc2)c2ccccc21 [Example 298, 3-(4-Aminophenylethyl)-4-[(1-methylindol-3-yl)methylene]-2-pyrazolin-5-one]
244 to 245 | Cc1ccc(CCC2=NNC(=O)C2=Cc2c[nH]c3ccccc23)cc1 [Example 236, 4-[(Indol-3-yl)methylene]-3-(4-methylphenylethyl)-2-pyrazolin-5-one]
178 to 180 | Cc1c[nH]c(C=C2C(=O)NN=C2CCc2ccc(N)cc2)c1 [Example 42, 3-(4-Aminophenylethyl)-4-[(4-methylpyrrol-2-yl)methylene]-2-pyrazolin-5-one]
192 to 194 | O=C1NN=C(COc2ccc(-c3ccccc3)cc2)C1=Cc1ccc[nH]1 [Example 24, 3-(4-Phenylphenyloxymethyl)-4-[(pyrrol-2-yl)methylene]-2-pyrazolin-5-one]
> 300 | NC1=NNC(=O)C1=Cc1c[nH]c2ncccc12 [Example 337, 3-Amino-4-[(7-azaindol-3-yl)methylene]-2-pyrazolin-5-one]
295 to 297 | O=C1NN=C(CCc2ccc([N+](=O)[O-])cc2)C1=Cc1c[nH]c2ccccc12 [Example 240, 4-[(Indol-3-yl)methylene]-3-(4-nitrophenylethyl)-2-pyrazolin-5-one]
130 to 131 | CC(CC1=NNC(=O)C1=Cc1ccc[nH]1)c1ccccc1 (stereo not shown) [Example 25, 3-(2-Phenylpropyl)-4-[(pyrrol-2-yl)methylene]-2-pyrazolin-5-one]
212 to 214 | CC(C)OC1=NNC(=O)C1=Cc1ccc(-c2ccccc2)[nH]1 [Example 76, 3-Isopropoxy-4-[(5-phenylpyrrol-2-yl)methylene]-2-pyrazolin-5-one]
271 to 275 | O=C1NN=C(CCc2ccc(O)cc2)C1=Cc1c[nH]c2ccccc12 [Example 235, 3-(4-Hydroxyphenylethyl)-4-[(indol-3-yl)methylene]-2-pyrazolin-5-one]
